Measurements: EP0238060B1, “Cephalosporin derivatives, processes for their preparation and antibacterial agents” (Banyu Pharmaceutical Co., Ltd., priority 1986, dated 1987)
≈ marks a conversion by molar mass, not a printed value. Like-named read-outs stand apart in the source and are kept apart here.

Experiments:
Assay in all cases: In vitro antibacterial activity, agar plate dilution method (MIC)
Ps.cepacia 23 = type: cell-based, Pseudomonas cepacia; settings: Burkholderia cepacia; Ps.cepacia 23; Mueller Hinton agar, inoculum 10⁶ CFU/ml, 37°C, 16 hours; read-out: Minimum Inhibitory Concentration (MIC: µg/ml)
Protocol: (§1) The in vitro antibacterial activities of the compounds of the present invention against various microorganisms, were measured by the following agar plate dilution method. One platinum loopfull of each test microorganism incubated overnight in Mueller Hinton broth, was inoculated to Mueller Hinton agar (inoculum size: l0⁶ CFU/ml). Such culture media containing various antibiotics in various concentrations were prepared. After incubation at 37°C for l6 hours, the minimum inhibitory concentrations (MIC: µg/ml) were measured. As comparative compounds, Cefotaxime, Ceftazidime and the compounds of Reference Examples l to 4 were employed.

Ps.maltophilia GN 12873 = type: cell-based, Pseudomonas maltophilia; settings: Stenotrophomonas maltophilia, GN12873; Ps.maltophilia GN 12873 (β-Lactamase-producing strain); Mueller Hinton agar, inoculum 10⁶ CFU/ml, 37°C, 16 hours; read-out: Minimum Inhibitory Concentration (MIC: µg/ml)
Protocol: as §1

M.morganii GN5407 = type: cell-based; settings: Morganella morganii; M.morganii GN5407 (β-Lactamase-producing strain); Mueller Hinton agar, inoculum 10⁶ CFU/ml, 37°C, 16 hours; read-out: Minimum Inhibitory Concentration (MIC: µg/ml)
Protocol: as §1

K.oxytoca GN10650 = type: cell-based; settings: Klebsiella oxytoca, read-out: Minimum Inhibitory Concentration (MIC: µg/ml)
Protocol: as §1

A.calcoaceticus No. 4 = type: cell-based; settings: Acinetobacter calcoaceticus; A.calcoaceticus No. 4; Mueller Hinton agar, inoculum 10⁶ CFU/ml, 37°C, 16 hours; read-out: Minimum Inhibitory Concentration (MIC: µg/ml)
Protocol: as §1

P.vulgaris No. 33 = type: cell-based; settings: Proteus vulgaris, read-out: Minimum Inhibitory Concentration (MIC: µg/ml)
Protocol: as §1

E.coli NIHJ JC2 = type: cell-based; settings: Escherichia coli, NIHJJC2; E.coli NIHJ JC2; Mueller Hinton agar, inoculum 10⁶ CFU/ml, 37°C, 16 hours; read-out: Minimum Inhibitory Concentration (MIC: µg/ml)
Protocol: as §1

E.cloacae 963 = type: cell-based; settings: read-out: Minimum Inhibitory Concentration (MIC: µg/ml)
Protocol: as §1

M.luteus ATCC9341 = type: cell-based; settings: Micrococcus luteus; M.luteus ATCC9341; Mueller Hinton agar, inoculum 10⁶ CFU/ml, 37°C, 16 hours; read-out: Minimum Inhibitory Concentration (MIC: µg/ml)
Protocol: as §1

C.freundii GN346 = type: cell-based; settings: Citrobacter freundii; C.freundii GN346 (β-Lactamase-producing strain); Mueller Hinton agar, inoculum 10⁶ CFU/ml, 37°C, 16 hours; read-out: Minimum Inhibitory Concentration (MIC: µg/ml)
Protocol: as §1

Ps.aeruginosa AKR17 = type: cell-based; settings: Pseudomonas aeruginosa; Ps.aeruginosa AKR17; Mueller Hinton agar, inoculum 10⁶ CFU/ml, 37°C, 16 hours; read-out: Minimum Inhibitory Concentration (MIC: µg/ml)
Protocol: as §1

E.coli CSH2 (RK1) = type: cell-based; settings: Escherichia coli, 16 h, read-out: Minimum Inhibitory Concentration (MIC: µg/ml)
Protocol: as §1

K.pneumoniae PCI-602 = type: cell-based; settings: Klebsiella pneumoniae, PCI602; K.pneumoniae PCI-602; Mueller Hinton agar, inoculum 10⁶ CFU/ml, 37°C, 16 hours; read-out: Minimum Inhibitory Concentration (MIC: µg/ml)
Protocol: as §1

E.coli GN5482 = type: cell-based; settings: Escherichia coli; E.coli GN5482 (β-Lactamase-producing strain); Mueller Hinton agar, inoculum 10⁶ CFU/ml, 37°C, 16 hours; read-out: Minimum Inhibitory Concentration (MIC: µg/ml)
Protocol: as §1

S.aureus 209P NIHJ-JC1 = type: cell-based; settings: Staphylococcus aureus; S.aureus 209P NIHJ-JC1; Mueller Hinton agar, inoculum 10⁶ CFU/ml, 37°C, 16 hours; read-out: Minimum Inhibitory Concentration (MIC: µg/ml)
Protocol: as §1

S.aureus JS1 = type: cell-based; settings: Staphylococcus aureus; S.aureus JS1 (β-Lactamase-producing strain); Mueller Hinton agar, inoculum 10⁶ CFU/ml, 37°C, 16 hours; read-out: Minimum Inhibitory Concentration (MIC: µg/ml)
Protocol: as §1

S.epidermidis IAM12012 = type: cell-based; settings: Staphylococcus epidermidis; S.epidermidis IAM12012; Mueller Hinton agar, inoculum 10⁶ CFU/ml, 37°C, 16 hours; read-out: Minimum Inhibitory Concentration (MIC: µg/ml)
Protocol: as §1

K.pneumoniae No. 42 = type: cell-based; settings: Klebsiella pneumoniae; K.pneumoniae No. 42 (β-Lactamase-producing strain); Mueller Hinton agar, inoculum 10⁶ CFU/ml, 37°C, 16 hours; read-out: Minimum Inhibitory Concentration (MIC: µg/ml)
Protocol: as §1

S.marcescens No. 16-2 = type: cell-based; settings: Serratia marcescens, NO.162; S.marcescens No. 16-2 (β-Lactamase-producing strain); Mueller Hinton agar, inoculum 10⁶ CFU/ml, 37°C, 16 hours; read-out: Minimum Inhibitory Concentration (MIC: µg/ml)
Protocol: as §1

E.coli CSH(RE45) = type: cell-based; settings: Escherichia coli, 16 h, read-out: Minimum Inhibitory Concentration (MIC: µg/ml)
Protocol: as §1

E.cloacae Nek 39 = type: cell-based; settings: Enterobacter cloacae, NEK39; E.cloacae Nek 39 (β-Lactamase-producing strain); Mueller Hinton agar, inoculum 10⁶ CFU/ml, 37°C, 16 hours; read-out: Minimum Inhibitory Concentration (MIC: µg/ml)
Protocol: as §1

C.freundii GN346/16 = type: cell-based; settings: Citrobacter freundii; C.freundii GN346/16; Mueller Hinton agar, inoculum 10⁶ CFU/ml, 37°C, 16 hours; read-out: Minimum Inhibitory Concentration (MIC: µg/ml)
Protocol: as §1

P.vulgaris HX-19 = type: cell-based; settings: Proteus vulgaris, HX19; P.vulgaris HX-19; Mueller Hinton agar, inoculum 10⁶ CFU/ml, 37°C, 16 hours; read-out: Minimum Inhibitory Concentration (MIC: µg/ml)
Protocol: as §1

Ps.aeruginosa AK 109 = type: cell-based; settings: Pseudomonas aeruginosa, AK109; Ps.aeruginosa AK 109; Mueller Hinton agar, inoculum 10⁶ CFU/ml, 37°C, 16 hours; read-out: Minimum Inhibitory Concentration (MIC: µg/ml)
Protocol: as §1

S.marcescens IAM 1184 = type: cell-based; settings: Serratia marcescens, read-out: Minimum Inhibitory Concentration (MIC: µg/ml)
Protocol: as §1

Ps.aeruginosa IFO3445 = type: cell-based; settings: Pseudomonas aeruginosa; Ps.aeruginosa IFO3445; Mueller Hinton agar, inoculum 10⁶ CFU/ml, 37°C, 16 hours; read-out: Minimum Inhibitory Concentration (MIC: µg/ml)
Protocol: as §1

S.aureus BB5703 = type: cell-based; settings: Staphylococcus aureus; S.aureus BB5703; Mueller Hinton agar, inoculum 10⁶ CFU/ml, 37°C, 16 hours; read-out: Minimum Inhibitory Concentration (MIC: µg/ml)
Protocol: as §1

[1] = K.oxytoca GN10650 (β-Lactamase-producing strain), Mueller Hinton agar, inoculum 10⁶ CFU/ml, 37°C, 16 hours
[2] = Enterobacter cloacae, E.cloacae 963, Mueller Hinton agar, inoculum 10⁶ CFU/ml, 37°C, 16 hours
[3] = IAM1184, S.marcescens IAM 1184, Mueller Hinton agar, inoculum 10⁶ CFU/ml, 37°C, 16 hours

Compound	MIC (Ps.cepacia 23) [µg/mL]	MIC (Ps.maltophilia GN 12873) [µg/mL]	MIC (M.morganii GN5407) [µg/mL]	MIC (A.calcoaceticus No. 4) [µg/mL]	MIC (E.coli NIHJ JC2) [µg/mL]	MIC (M.luteus ATCC9341) [µg/mL]	MIC (C.freundii GN346) [µg/mL]	MIC (Ps.aeruginosa AKR17) [µg/mL]	MIC (E.coli CSH2 (RK1)) [µg/mL]	MIC (K.pneumoniae PCI-602) [µg/mL]	MIC (E.coli GN5482) [µg/mL]	MIC (S.aureus 209P NIHJ-JC1) [µg/mL]	MIC (S.aureus JS1) [µg/mL]	MIC (S.epidermidis IAM12012) [µg/mL]	MIC (K.pneumoniae No. 42) [µg/mL]	MIC (S.marcescens No. 16-2) [µg/mL]	MIC (E.coli CSH(RE45)) [µg/mL]	MIC (E.cloacae Nek 39) [µg/mL]	MIC (C.freundii GN346/16) [µg/mL]	MIC (P.vulgaris HX-19) [µg/mL]	other results
CC(C)ON=C(C(=O)NC1C(=O)N2C(C(=O)[O-])=C(C[n+]3ccc4cc(O)c(O)cc4c3)CS[C@H]12)c1csc(N)n1 (stereo partly drawn) [Ex. 2, 7-[2-(2-aminothiazol-4-yl)-2-isopropoxyiminoacetamido]-3-(6,7-dihydroxy-2-isoquinolinio)methyl-3-cephem-4-carboxylate]	0.1 (≈ 0.171 µM)	100 (≈ 171 µM)	0.05 (≈ 0.0855 µM)	0.2 (≈ 0.342 µM)	0.1 (≈ 0.171 µM)	0.1 (≈ 0.171 µM)	50 (≈ 85.5 µM)	25 (≈ 42.8 µM)	< 0.006	< 0.006	0.39 (≈ 0.667 µM)	1.56 (≈ 2.67 µM)	12.5 (≈ 21.4 µM)	0.78 (≈ 1.33 µM)	0.025 (≈ 0.0428 µM)	0.78 (≈ 1.33 µM)	0.39 (≈ 0.667 µM)	0.05 (≈ 0.0855 µM)	0.78 (≈ 1.33 µM)	< 0.006	MIC (K.oxytoca GN10650; [1]): 0.39 µg/mL (≈ 0.667 µM); MIC (P.vulgaris No. 33; P.vulgaris No. 33 (β-Lactamase-producing strain), Mueller Hinton agar, inoculum 10⁶ CFU/ml, 37°C, 16 hours): 0.05 µg/mL (≈ 0.0855 µM); MIC (E.cloacae 963; [2]): 0.025 µg/mL (≈ 0.0428 µM); MIC (Ps.aeruginosa AK 109): 0.78 µg/mL (≈ 1.33 µM); MIC (S.marcescens IAM 1184; [3]): 0.0125 µg/mL (≈ 0.0214 µM); MIC (Ps.aeruginosa IFO3445): 0.78 µg/mL (≈ 1.33 µM); MIC (S.aureus BB5703): 6.25 µg/mL (≈ 10.7 µM)
C=C(O/N=C(\C(=O)NC1C(=O)N2C(C(=O)[O-])=C(C[n+]3ccc4cc(O)c(O)cc4c3)CSC12)c1csc(N)n1)C(=O)O (stereo not drawn) [Ex. 6, 7-[2-(2-aminothiazol-4-yl)-2-(l-carboxy-l-vinyloxyimino)acetamido]-3-(6,7-dihydroxy-2-isoquinolinio)methyl-3-cephem-4-carboxylate]	0.025 (≈ 0.0408 µM)	25 (≈ 40.8 µM)	0.05 (≈ 0.0816 µM)	0.2 (≈ 0.326 µM)	0.1 (≈ 0.163 µM)	6.25 (≈ 10.2 µM)	50 (≈ 81.6 µM)	1.56 (≈ 2.55 µM)	0.0125 (≈ 0.0204 µM)	< 0.006	0.2 (≈ 0.326 µM)	25 (≈ 40.8 µM)	100 (≈ 163 µM)	12.5 (≈ 20.4 µM)	0.025 (≈ 0.0408 µM)	0.1 (≈ 0.163 µM)	0.025 (≈ 0.0408 µM)	0.025 (≈ 0.0408 µM)	1.56 (≈ 2.55 µM)	< 0.006	MIC (K.oxytoca GN10650; [1]): 0.05 µg/mL (≈ 0.0816 µM); MIC (P.vulgaris No. 33; NO.33, 16 h): 0.0125 µg/mL (≈ 0.0204 µM); MIC (E.cloacae 963; Enterobacter cloacae, 963, 16 h): 0.0125 µg/mL (≈ 0.0204 µM); MIC (Ps.aeruginosa AK 109): 0.39 µg/mL (≈ 0.637 µM); MIC (S.marcescens IAM 1184; IAM1184, 16 h): 0.0125 µg/mL (≈ 0.0204 µM); MIC (Ps.aeruginosa IFO3445): 1.56 µg/mL (≈ 2.55 µM); MIC (S.aureus BB5703): 50 µg/mL (≈ 81.6 µM)
Nc1nc(/C(=N/OC2(C(=O)O)CCCC2)C(=O)NC2C(=O)N3C(C(=O)[O-])=C(C[n+]4ccc5cc(O)c(O)cc5c4)CSC23)cs1 (stereo not drawn) [Ex. 5, 7-[2-(2-aminothiazol-4-yl)-2-(l-carboxy-l-cyclopentyloxyimino)acetamido]-3-(6,7-dihydroxy-2-isoquinolinio)methyl-3-cephem-4-carboxylate]	< 0.006	1.56 (≈ 2.38 µM)	0.1 (≈ 0.153 µM)	0.1 (≈ 0.153 µM)	0.05 (≈ 0.0764 µM)	3.12 (≈ 4.77 µM)	50 (≈ 76.4 µM)	0.39 (≈ 0.596 µM)	0.0125 (≈ 0.0191 µM)	< 0.006	0.2 (≈ 0.305 µM)	25 (≈ 38.2 µM)	100 (≈ 153 µM)	6.25 (≈ 9.55 µM)	0.05 (≈ 0.0764 µM)	0.1 (≈ 0.153 µM)	0.78 (≈ 1.19 µM)	< 0.006	1.56 (≈ 2.38 µM)	< 0.006	MIC (K.oxytoca GN10650; GN10650, 16 h): 0.0125 µg/mL (≈ 0.0191 µM); MIC (P.vulgaris No. 33; NO.33, 16 h): 0.0125 µg/mL (≈ 0.0191 µM); MIC (E.cloacae 963; [2]): 0.05 µg/mL (≈ 0.0764 µM); MIC (Ps.aeruginosa AK 109): 0.39 µg/mL (≈ 0.596 µM); MIC (S.marcescens IAM 1184; [3]): < 0.006 µg/mL; MIC (Ps.aeruginosa IFO3445): 0.39 µg/mL (≈ 0.596 µM); MIC (S.aureus BB5703): 50 µg/mL (≈ 76.4 µM)
